Experiment [1] has as its target recombinant eIF4E (Homo sapiens (Human), UniProt P06730). Nature of the experiment: Fluorescence polarization competition assay for eIF4E binding potency. Put shortly:
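IC50 derived from fluorescence polarization over an 8-point, 3-fold compound series after 30 min room-temperature equilibration in the dark. Mix: eIF4E 75 nM pre-bound 5 min to 20 nM EDA-m^7GDP-ATTO-550; buffer 20 mM Tris pH 7.5, 100 mM NaCl, 1 mM DTT, 0.02% Tween-20; DMSO 1%.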
For orientation: In fluorescence polarisation assays a small probe gives low polarisation when free and higher when bound to something large.

The subject of experiment [2] is MDA-MB-361 cells. Nature of the experiment: Cell proliferation assay (CELLTITER-GLO). It counts as cell-based. To be noted: Homo sapiens, 144 h, 6 days of treatment; for IC50: CELLTITER-GLO, % of DMSO control. How it is done:
MDA-MB-361 cells were maintained in DMEM supplemented with 10% FBS and 1× penicillin/streptomycin solution at […] in a CO2 incubator. For cell proliferation assays, exponentially growing cells were seeded at 2,000 cells per well in 96-well flat bottom white polystyrene plates (ThermoFisher) and cultured overnight. The following day, compound was added in a 9 point 3-fold dilution series starting from a top concentration of 1 or 10 μM (as indicated) together with a DMSO control. The final DMSO concentration in samples was 0.1%.
Cells were incubated for up to 6 […] at 37° C. in a CO2 incubator. Baseline viability of untreated cells was measured on the day of treatment and proliferation was measured after 6 […] of treatment using CELLTITER-GLO® reagent from Promega (Madison, Wis.) according to the manufacturer's instructions. Response to compound was calculated relative to the DMSO control (% of control) using the formula, % of control (DMSO)=[(CTGcells+inhibitor)/(CTGDMSO control)]×100. Data were plotted using Prism (GraphPad software), and IC50 and Emax values were calculated from a 4 parameter, variable slope non-linear regression model. Results are shown below and in FIGS. 1-3.
On the technique in general: Cellular ATP, detected with luciferase, serves as a proxy for viable cell number.

Setting [3] is: fluorescence polarization competition, 75 nM recombinant eIF4E, 20 nM EDA-m7GDP-ATTO-550, IC50 class, read-out: elF4E FP.
Setting [4] is: inhibition of eIF4E/EDA-m7GDP-ATTO-550 binding by 50%, Table 4B calculated values, read-out: IC50.
Setting [5] is: inhibition of eIF4E/EDA-m7GDP-ATTO-550 binding, calculated IC50 values, Table 4B, read-out: IC50.

This passage reports IC50 and Emax results from patent US11286268B1, “EIF4E-inhibiting compounds and methods” (EFFECTOR THERAPEUTICS, INC., priority 2019, dated 2022).

Structures are written as SMILES. Where two headings read alike, the source gives them in different places. Where only a bound is given, the exact number is not on record here.

Sequence of recombinant eIF4E (P06730 whole entry): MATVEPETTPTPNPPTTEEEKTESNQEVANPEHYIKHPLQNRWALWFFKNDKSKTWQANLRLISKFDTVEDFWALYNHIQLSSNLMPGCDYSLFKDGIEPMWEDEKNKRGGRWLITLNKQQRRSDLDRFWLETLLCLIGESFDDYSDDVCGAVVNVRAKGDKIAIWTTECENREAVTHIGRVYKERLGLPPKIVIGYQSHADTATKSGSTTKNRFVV

For `Cc1nc2cnc(N(C)C3CCN(CC(C)(F)F)CC3)c(C#N)c2c(=O)n1CC#Cc1ccc(Cl)cc1-c1ccnc2c(C(=O)O)csc12` [compound 1141, 7-(5-chloro-2-(3-(5-cyano-6-((1-(2,2-difluoropropyl)piperidin-4-yl)(methyl)amino)-2-methyl-4-oxopyrido[3,4-d]pyrimidin-3(4H)-yl)prop-1-yn-1-yl)phenyl)thieno[3,2-b]pyridine-3-carboxylic acid], the IC50 is < 50 nM in experiment [1] (setting [3]), 18.9 nM in experiment [1] (setting [4]) and 361 nM in experiment [2]. Consider `Cc1cc(-c2cc(Cl)ccc2OCCn2c(C)nc3cc(C(F)(F)F)c(N4CCN(C)CC4)c(C#N)c3c2=O)c2scc(C(=O)O)c2n1` [compound 634, 7-(5-chloro-2-(2-(5-cyano-2-methyl-6-(4-methylpiperazin-1-yl)-4-oxo-7-(trifluoromethyl)quinazolin-3(4H)-yl)ethoxy)phenyl)-5-methylthieno[3,2-b]pyridine-3-carboxylic acid], for which the IC50 is < 50 nM in experiment [1] (setting [3]), 5.62 nM in experiment [1] (setting [4]) and 3.8 nM in experiment [2]. On to `Cc1nc2cnc(N(C)C3CCN(C4CC(F)(F)C4)CC3)c(C#N)c2c(=O)n1CC#Cc1ccc(Cl)cc1-c1ccnc2c(C(=O)NS(C)(=O)=O)csc12` [compound 1188, 7-(5-chloro-2-(3-(5-cyano-6-((1-(3,3-difluorocyclobutyl)piperidin-4-yl)(methyl)amino)-2-methyl-4-oxopyrido[3,4-d]pyrimidin-3(4H)-yl)prop-1-yn-1-yl)phenyl)-N-(methylsulfonyl)thieno[3,2-b]pyridine-3-carboxamide], for which the IC50 in experiment [1] (setting [3]) was < 50 nM; in experiment [1] (setting [4]), 12.4 nM; in experiment [2] it was 46.8 nM. This compound also displayed an Emax in experiment [2] (4 parameter non-linear regression) of 90.2%. For `Cc1cc(-c2cc(Cl)ccc2OCCn2c(C)nc3cc(Cl)c(N4CCCC4=O)c(C#N)c3c2=O)c2scc(C(=O)O)c2n1` [compound 697], the IC50 in experiment [1] (setting [3]) is < 50 nM; in experiment [1] (setting [4]), 10.2 nM. Consider `Cc1nc2cnc(N3CCN(C4CC(F)(F)C4)CC3)c(C#N)c2c(=O)n1CC#Cc1ccc(Cl)cc1-c1ccnc2c(C(=O)O)csc12` [compound 1355], for which the IC50 in experiment [1] (setting [5]) was 24.8 nM. Consider `CCc1cc(-c2cc(Cl)ccc2OCCn2c(C)nc3cc(C(F)(F)F)c(-c4ccccn4)c(C#N)c3c2=O)c2scc(C(=O)O)c2n1` [compound 747], for which the IC50 is < 50 nM in experiment [1] (setting [3]) and 18.9 nM in experiment [1] (setting [4]). The matching figures for `Cc1nc2ccc(S(=O)(=O)N(C)C)c(C#N)c2c(=O)n1CCOc1ccc(Cl)cc1-c1ccnc2c(C(=O)O)csc12` [compound 196]: < 50 nM and 25.7 nM. The matching figures for `Cc1nc2ccc(C(F)F)c(C#N)c2c(=O)n1CCOc1ccc(Cl)cc1-c1ccnc2c(C(=O)O)csc12` [compound 160]: < 50 nM and 8.83 nM. For `Cc1cc(-c2cc(Cl)ccc2OCCn2c(C)nc3cnc(-c4cccc(C(F)(F)F)c4)c(C#N)c3c2=O)c2scc(C(=O)O)c2n1` [compound 951] the same measures were < 50 nM and 43.6 nM.

For `Cc1nc2c(N3CCN(CCF)C4CC43)ncc(C#N)c2c(=O)n1CCOc1ccc(Cl)cc1-c1ccnc2c(C(=O)O)csc12` (centres unmarked) [compound 817], in experiment [1] (setting [3]), the IC50 was < 50 nM. Consider `Cc1nc2cnc(N(C)C3CCN(CC(F)(F)C4CC4)CC3)c(C#N)c2c(=O)n1CC#Cc1ccc(Cl)cc1-c1ccnc2c(C(=O)O)csc12` [compound 1125], for which the IC50 in experiment [1] (setting [3]) was < 50 nM; in experiment [1] (setting [4]), 14.5 nM.

In the case of `Cc1nc2cc(C(F)(F)F)c(CCN(C)C)c(C#N)c2c(=O)n1CCOc1ccc(Cl)cc1-c1ccnc2ccsc12` [compound 1255], in experiment [1] (setting [5]), the IC50 was 150 nM. `Cc1cc(-c2cc(Cl)ccc2OCCn2c(C)nc3cnc(N4[C@@H]5C[C@H]4CN(C)C5)c(C#N)c3c2=O)c2sc(C)c(C(=O)O)c2n1` [compound 1203]: the IC50 is < 50 nM in experiment [1] (setting [3]) and 9.15 nM in experiment [1] (setting [5]). With `Cc1cc(-c2cc(Cl)ccc2OCCn2c(C)nc3cc(C(F)(F)F)c(-c4scnc4C)nc3c2=O)c2scc(C(=O)O)c2n1` [compound 939], the IC50 in experiment [1] (setting [3]) is < 50 nM; in experiment [1] (setting [4]) it was 12.1 nM.

Regarding `Cc1nc2cnc(N(C)C3CCN(C4(CF)CC4)CC3)c(C#N)c2c(=O)n1CCOc1ccc(Cl)cc1-c1ccnc2c(C(=O)O)csc12` [compound 1428], the IC50 in experiment [1] (setting [5]) is 12.2 nM. Consider `Cc1cc(-c2cc(Cl)ccc2OCCn2c(C)nc3cnc(N4CCC(F)(F)CC4)c(C#N)c3c2=O)c2scc(C(=O)O)c2n1` [compound 1097], for which the IC50 is < 50 nM in experiment [1] (setting [3]) and 38.8 nM in experiment [1] (setting [4]). Consider `Cc1cc(-c2cc(Cl)ccc2OCCn2c(C)nc3cc(C(F)(F)F)c(N4CCN(C)CC4)c(C#N)c3c2=O)c2scc(C(O)(O)C(F)(F)F)c2n1` [compound 1079], for which the IC50 in experiment [1] (setting [4]) was 55.9 nM.

On to `Cc1cc(-c2cc(Cl)ccc2OCCn2c(C)nc3cnc(Oc4ccccc4)c(C#N)c3c2=O)c2scc(C(=O)O)c2n1` [compound 1038], for which the IC50 in experiment [1] (setting [3]) was < 50 nM; in experiment [1] (setting [4]), 38.9 nM. For `Cc1nc2cc(C(F)(F)F)c(CC3CN(CC(F)(F)F)C3)c(C#N)c2c(=O)n1CCOc1ccc(Cl)cc1-c1ccnc2c(C(=O)O)csc12` [compound 494] the same measures were 50 to 1000 nM and 85.6 nM. As for `N#Cc1cc2c(=O)n(CCOc3ccc(Cl)cc3-c3cc(C(=O)O)c4ncccc4c3)cnc2cn1` [compound 100], the IC50 is > 1000 nM in experiment [1] (setting [3]) and 3480 nM in experiment [1] (setting [4]). `Cn1ccc2ncn(CCOc3ccc(Cl)cc3-c3cccc(C(=O)O)c3)c(=O)c21` [compound 69]: the IC50 was > 1000 nM in experiment [1] (setting [3]) and 26800 nM in experiment [1] (setting [4]). The matching figures for `Cc1nc2cc(C(F)(F)F)cc(C#N)c2c(=O)n1CCOc1ccc(Cl)cc1-c1cccc(C(=O)O)c1` [compound 51]: < 50 nM and 21.3 nM. For `Cc1nc2cc(C(F)(F)F)cc(C#N)c2c(=O)n1CCOc1ccc(Cl)cc1N1CCC(C(=O)O)CC1` [compound 326] the same measures were > 1000 nM and 1440 nM.

As to `N#Cc1cc(C(F)(F)F)cc2nc(C(F)F)n(CCOc3ccc(Cl)cc3-c3ccnc4c(C(=O)O)csc34)c(=O)c12` [compound 65], the IC50 in experiment [1] (setting [3]) is < 50 nM; in experiment [1] (setting [4]), 24.1 nM. `Cc1cc(-c2cc(Cl)ccc2OCCn2c(C)nc3cc(C(F)(F)F)c(Cl)nc3c2=O)c2scc(C(=O)O)c2n1` [compound 1978]: the IC50 in experiment [1] (setting [5]) is 25.3 nM.

As for `Cc1cc(-c2cc(Cl)ccc2OCCn2c(C)nc3cc(C(F)(F)F)c(N4CCC(C(F)(F)F)CC4)nc3c2=O)c2scc(C(=O)O)c2n1` [compound 803], the IC50 in experiment [1] (setting [3]) is 50 to 1000 nM; in experiment [1] (setting [4]), 161 nM. As to `Cc1cc(-c2cc(Cl)ccc2OCCn2c(C)nc3c(F)c(C(F)(F)F)cc(C#N)c3c2=O)c2scc(C(=O)O)c2n1` [compound 589], the IC50 in experiment [1] (setting [3]) was < 50 nM; in experiment [1] (setting [4]) it was 4.45 nM. Consider `Cc1nc2cnc(N3CCN(C4(COC(F)F)CC4)CC3)c(C#N)c2c(=O)n1CC#Cc1ccc(Cl)cc1-c1ccnc2c(C(=O)O)csc12` [compound 1510], for which, in experiment [1] (setting [5]), the IC50 is 20.1 nM.

Regarding `Cc1nc2cnc(N(C)C3CCN(CC(F)(F)F)CC3)c(C#N)c2c(=O)n1CC#Cc1ccc(Cl)cc1-c1ccnc2c(C(=O)NS(=O)(=O)c3cscn3)csc12` [compound 1675], the IC50 in experiment [1] (setting [5]) was 4.11 nM. Regarding `Cc1nc2cc(C(F)F)cc(C#N)c2c(=O)n1CCOc1ccc(Cl)cc1-c1cccc(C(=O)O)c1` [compound 153], the results for the IC50 in experiment [1] (setting [3]) and in experiment [1] (setting [4]) were 50 to 1000 nM and 54 nM, respectively.
